Data set [1] concerns TTR. Put plainly: In vitro on-target activity, primary mouse hepatocytes, free uptake (TTR siRNAs). Type of data set: cell-based. As to conditions: 1 nM, log2 transformed, relative to the parent.
The test system of data set [2] is luciferase reporter plasmids (psiCHECK2, Renilla luciferase fused to target sequence). Put plainly: Off-target Dual-Glo luciferase reporter assay in COS-7 cells. Type of data set: cell-based. Here is the method: Dual-Glo® Luciferase assay: Cos7 cells (ATCC, Manassas, VA) were grown to near confluence at 37° C. in an atmosphere of 5% CO2 in DMEM (ATCC) supplemented with 10% FBS, before being released from the plate by trypsinization. siRNA and psiCHCECK2 plasmid transfection was carried out by adding 5 μL of siRNA duplexes and 5 μL of psiCHECK2 plasmid per well along with 5 μL of Opti-MEM plus 0.1 μL of Lipofectamine 2000 per well (Invitrogen, Carlsbad CA. cat #13778-150) and then incubated at room temperature for 15 minutes. The mixture was then added to the cells which were re-suspended in 35 ul of fresh complete media. The transfected cells were incubated at 37° C. in an atmosphere of 5% CO2.
48 hours after the siRNAs and psiCHECK2 plasmid were transfected; Firefly (transfection control) and Renilla (fused to target sequence) luciferase were measured. First, media was removed from cells. Then Firefly luciferase activity was measured by adding 20 μL of Dual-Glo® Luciferase Reagent equal to the culture medium volume to each well and mix. The mixture was incubated at room temperature for 30 minutes before luminescence (500 nm) was measured on a Spectramax (Molecular Devices) to detect the Firefly luciferase signal. Renilla luciferase activity was measured by adding 20 μL of room temperature of Dual-Glo® Stop & Glo® Reagent was added to each well and the plates were incubated for 10-15 minutes before luminescence was again measured to determine the Renilla luciferase signal. The Dual-Glo® Stop & Glo® Reagent, quenches the firefly luciferase signal and sustained luminescence for the Renilla luciferase reaction. siRNA activity was determined by normalizing the Renilla signal to the Firefly (control) signal within each well. The magnitude of siRNA activity was then assessed relative to cells that were transfected with the same vector but were not treated with siRNA or were treated with a non-targeting siRNA. All transfections were done at n=2 or greater.
Background: In a reporter assay the amount or activity of a reporter protein is the signal.

A short description of data set [3]: Temperature-dependent UV spectroscopy, Tm of modified siRNA duplexes. The format is physicochemical. The conditions noted are these: 1 μM duplex, 0.25x PBS. How it is done:
Temperature-dependent UV Spectroscopy: The melting studies were performed at a duplex concentration of 1 μM (consisting of the modified antisense […]) in 1 cm path length quartz cells on a Cary 300 spectrophotometer equipped with a thermoprogrammer. Each cuvette contained 800 μL of sample solution covered by 200 μL of light mineral oil. Melting curves were monitored at 260 nm with a heating rate of 1° C./min from 15-90° C. Melting temperatures (Tm) were calculated from the first derivatives of the smoothed heating curves and the reported values are the result of at least two independent measurements.

Setting [4] is: antisense Position 5, Seq 3 (TTR).
Setting [5] is: antisense Position 7, Seq 3 (TTR).
[6] abbreviates: antisense Position 7, Seq 4 (TTR).
The mark [7] stands for this setting: TTR-3, antisense strand modified at position 5, luciferase reporter, COS-7 cells.
[8] abbreviates: TTR-3, antisense strand modified at position 7, luciferase reporter, COS-7 cells.
Setting [9] is: TTR-4, modification at antisense position 7, luciferase reporter plasmids co-transfected with siRNAs into COS-7 cells.

As for 5′-(R)-Me-UNA [Mod 5 (R)], the “On-target FU” value was −0.16 in data set [1] (setting [4]), −0.03 in data set [1] (setting [5]) and −0.33 in data set [1] (setting [6]). Moreover, the IC50 in data set [2] (setting [7]) is more than 0.05 µM; in data set [2] (setting [8]), more than 0.05 µM; in data set [2] (setting [9]), 0.00813 µM. Moreover, the “Thermal melting temperature (Tm)” value in data set [3] (setting [4]) amounted to 84.2 °C; in data set [3] (setting [5]), 80.3 °C; in data set [3] (setting [6]), 82.0 °C.
Take 2′-(S)-Me-UNA [Mod 7 (S)]: the “On-target FU” value in data set [1] (setting [4]) is −0.10; in data set [1] (setting [5]) it was −0.02; in data set [1] (setting [6]) it was −0.14. The results for the IC50 in data set [2] (setting [7]), in data set [2] (setting [8]) and in data set [2] (setting [9]) were more than 0.05 µM, more than 0.05 µM and 0.00135 µM, respectively. The “Thermal melting temperature (Tm)” value is 84.3 °C in data set [3] (setting [4]), 80.0 °C in data set [3] (setting [5]) and 83.0 °C in data set [3] (setting [6]).
As for 5′-(S)-Me-UNA [Mod 5 (S)], the results for the “On-target FU” value in data set [1] (setting [4]), in data set [1] (setting [5]) and in data set [1] (setting [6]) were −0.87, −1.20 and 0.22, respectively. Besides, the half-inhibitory concentration (IC50) in data set [2] (setting [7]) was more than 0.05 µM; in data set [2] (setting [8]), more than 0.05 µM; in data set [2] (setting [9]) it was 0.00873 µM. The “Thermal melting temperature (Tm)” value in data set [3] (setting [4]) is 84.2 °C; in data set [3] (setting [5]), 80.3 °C; in data set [3] (setting [6]), 82.0 °C.
Take 3′-(S)-Me-UNA [Mod 6 (S)]: the “On-target FU” value is listed as −0.38 in data set [1] (setting [4]), −0.53 in data set [1] (setting [5]) and −0.09 in data set [1] (setting [6]). Also, the IC50 is more than 0.05 µM in data set [2] (setting [7]), more than 0.05 µM in data set [2] (setting [8]) and 0.00365 µM in data set [2] (setting [9]). Also, the “Thermal melting temperature (Tm)” value in data set [3] (setting [4]) amounted to 84.0 °C; in data set [3] (setting [5]) it was 81.1 °C; in data set [3] (setting [6]), 82.0 °C.
In the case of 2′-(R)-Me-UNA [Mod 7 (R)], the “On-target FU” value is on record as 0.02 in data set [1] (setting [4]), −0.35 in data set [1] (setting [5]) and −0.24 in data set [1] (setting [6]). Also, the 50% inhibitory concentration (IC50) in data set [2] (setting [7]) is more than 0.05 µM; in data set [2] (setting [8]) it was more than 0.05 µM; in data set [2] (setting [9]), 0.00161 µM. The “Thermal melting temperature (Tm)” value in data set [3] (setting [4]) turned out to be 84.0 °C; in data set [3] (setting [5]), 80.0 °C; in data set [3] (setting [6]), 82.1 °C.
Turning to 3′-(R)-Me-UNA [Mod 6 (R)], the results for the “On-target FU” value in data set [1] (setting [4]), in data set [1] (setting [5]) and in data set [1] (setting [6]) were −0.78, −0.32 and 0.36, respectively. The IC50 was more than 0.05 µM in data set [2] (setting [7]), more than 0.05 µM in data set [2] (setting [8]) and 0.00286 µM in data set [2] (setting [9]). The “Thermal melting temperature (Tm)” value is 84.1 °C in data set [3] (setting [4]), 81.2 °C in data set [3] (setting [5]) and 82.0 °C in data set [3] (setting [6]).

Broadly, the IC50 is the concentration that gives 50% inhibition. Low values mean higher potency, high ones lower potency.
